ChEMBL document CHEMBL5226333, “Targeting Autophagy-Related Epigenetic Regulators for Cancer Drug Discovery” (J Med Chem, 2021)

Experiments:
[1] = Cmax in Swiss albino mouse plasma at 50 mg/kg,po and measured after 24 hrs; assay type: ADME, organism-based; set-up: time 24 hrs, dose 50 mg/kg, route po; settings: in vivo
[2] = target: Histone-lysine N-methyltransferase EZH2 (Homo sapiens, UniProt Q15910); test: Inhibition of EZH2 (unknown origin) in PRC2 complex using H3 (1 to 24 residues) and 3H-SAM as substrate incubated for 1 hrs by Scintillation proximity assay
[3] = Inhibition of GST-tagged […] human GLP (610 to 917 residues) methylation activity expressed in Escherichia coli BL21 assessed as reduction in H3K9me3 level using H3(1 to 20 residues)-cys-biotin and SAM as substrate incubated for 60 mins by Dissociation enhanced lanthanide fluoro-immuno assay

Chain of Histone-lysine N-methyltransferase EZH2 (Q15910 whole entry, the tested form may be a part): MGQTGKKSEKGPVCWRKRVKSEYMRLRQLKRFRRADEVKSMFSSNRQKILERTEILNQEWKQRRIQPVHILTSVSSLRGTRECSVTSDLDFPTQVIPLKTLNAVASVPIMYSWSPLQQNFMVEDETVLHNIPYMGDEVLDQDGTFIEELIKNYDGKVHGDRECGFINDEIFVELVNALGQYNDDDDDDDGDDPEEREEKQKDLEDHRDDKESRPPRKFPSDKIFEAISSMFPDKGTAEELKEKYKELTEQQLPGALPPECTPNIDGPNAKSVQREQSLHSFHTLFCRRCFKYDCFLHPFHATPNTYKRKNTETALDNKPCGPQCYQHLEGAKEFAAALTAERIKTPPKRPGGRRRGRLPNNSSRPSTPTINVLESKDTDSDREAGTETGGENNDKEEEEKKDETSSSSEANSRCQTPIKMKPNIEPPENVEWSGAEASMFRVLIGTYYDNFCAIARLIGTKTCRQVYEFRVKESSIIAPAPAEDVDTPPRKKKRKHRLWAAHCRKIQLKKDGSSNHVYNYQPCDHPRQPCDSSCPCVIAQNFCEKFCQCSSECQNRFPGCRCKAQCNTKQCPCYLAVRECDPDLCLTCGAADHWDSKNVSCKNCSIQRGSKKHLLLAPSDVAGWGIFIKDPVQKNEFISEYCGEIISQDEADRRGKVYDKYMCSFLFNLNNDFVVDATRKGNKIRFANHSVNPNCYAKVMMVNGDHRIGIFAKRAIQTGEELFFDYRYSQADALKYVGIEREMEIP

Cmax [1] [µM]	IC50 [2] [µM]	IC50 [3] [µM]	SMILES
4.7	< 0.01		CCCc1cc(C)[nH]c(=O)c1CNC(=O)c1cc(-c2ccc(N3CCN(C(C)C)CC3)nc2)cc2c1cnn2C(C)C
		38	COc1cc2nc(N3CCCN(C)CC3)nc(NC3CCN(Cc4ccccc4)CC3)c2cc1OC
